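Interpolation was linear, between the two tested concentrations surrounding the appropriate level; five concentrations were tested over 48 hours in 96-well plates. GI50 marks 50% less growth.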 Active and inactive are the calls of the source. No stated cut-off is given here; in the data, active = GI50 up to about 1.1 µM and inactive = higher. Where only a bound is given, the exact number is not on record here.

Some test systems named below: UACC-62; HOP-62; RPMI-8226; MDA-MB-231; MDA-MB-435; CCRF-CEM; NCI-H460; HCT-116; UO-31; CAKI-1; HT-29; EKVX; 786-0; PC-3; OVCAR-8; TK-10; HL-60; ACHN; SNB-75.
Common to all, as to assay: DTP human tumour cell line panel, 48 h

Consider `C[C@@H]1CCC[C@]2(C)O[C@H]2CC[C@@](C)(O)[C@@H]2CC3=C(CO)C(=O)O[C@H]3[C@H]1O2`, for which the GI50 in the assay with UACC-62 is > 50 µM (inactive); with HOP-62, > 50 µM (inactive); in the assay with RPMI-8226 it was 28.1 µM (inactive); in the assay with MDA-MB-231 it was > 50 µM (inactive); with MDA-MB-435 it was > 50 µM (inactive); in the assay with CCRF-CEM, 34.1 µM (inactive). In addition, the GI50 with NCI-H460, with HCT-116, with UO-31, in the assay on CAKI-1, in the assay on HT-29 and with EKVX was > 50 µM (inactive) each time. The GI50 in the assay with 786-0 is > 50 µM (inactive); in the assay on PC-3 it was > 50 µM (inactive); in the assay with OVCAR-8, > 50 µM (inactive); in the assay on TK-10, > 50 µM (inactive); in the assay with HL-60 it was > 5 µM (inactive); in the assay with ACHN it was > 50 µM (inactive). Also, the GI50 in the assay on SNB-75 was > 50 µM (inactive).
`CCCCCCCCCC[C@@H](O)[C@@H]1CC[C@@H]([C@@H]2CC[C@@H]([C@@H](O)CCCCCCCCCC[C@H](O)CC3=CC(C)OC3=O)O2)O1` (stereo partly specified): the GI50 is 1.44 µM (inactive) with UACC-62; 2.99 µM (inactive) in the assay on HOP-62; 1.26 µM (inactive) with RPMI-8226; 1.09 µM (active) with MDA-MB-435; 1.5 µM (inactive) in the assay on CCRF-CEM; 0.895 µM (active) with NCI-H460. For the same compound, the GI50 was 1.91 µM (inactive) with HCT-116; 1.25 µM (inactive) with UO-31; 12.1 µM (inactive) in the assay with CAKI-1; 2.51 µM (inactive) in the assay with HT-29; 1.61 µM (inactive) with EKVX; 3.74 µM (inactive) with 786-0. The GI50 with PC-3 was 2.34 µM (inactive); with OVCAR-8, 2.65 µM (inactive); with TK-10, 3.48 µM (inactive); with HL-60, 0.102 µM (active); in the assay on ACHN it was 0.0355 µM (active); in the assay with SNB-75, 3.33 µM (inactive).
In the case of `CCCc1cn2c(/C=N/NC(=N)N)c(-c3ccc(Cl)c([N+](=O)[O-])c3)nc2s1`, the GI50 with UACC-62 is 1.95 µM (inactive); in the assay with HOP-62 it was 1.88 µM (inactive); in the assay on RPMI-8226, 1.64 µM (inactive); in the assay with MDA-MB-231 it was 1.86 µM (inactive); in the assay with MDA-MB-435, 1.75 µM (inactive); with CCRF-CEM, 0.192 µM (active). The GI50 in the assay on NCI-H460 was 2.1 µM (inactive); in the assay with HCT-116, 1.22 µM (inactive); with UO-31, 1.76 µM (inactive); with CAKI-1, 1.82 µM (inactive); with HT-29 it was 0.826 µM (active); in the assay with 786-0, 1.8 µM (inactive). Also, the GI50 in the assay with PC-3 was 1.81 µM (inactive); in the assay with OVCAR-8 it was 1.82 µM (inactive); in the assay on TK-10 it was 1.54 µM (inactive); with HL-60 it was 1.2 µM (inactive); in the assay on ACHN, 1.69 µM (inactive); in the assay on SNB-75, 1.74 µM (inactive).
With `O=C(/C=C(\C(=O)c1cccs1)c1cccs1)c1ccc(C(=O)/C=C(\C(=O)c2cccs2)c2cccs2)cc1`, the GI50 in the assay on UACC-62, with HOP-62, in the assay on RPMI-8226, with MDA-MB-231, in the assay with MDA-MB-435 and in the assay with CCRF-CEM was > 100 µM (inactive) throughout. Also, the GI50 in the assay on NCI-H460, in the assay on HCT-116, in the assay with UO-31, with CAKI-1, with HT-29 and in the assay on EKVX was > 100 µM (inactive) each time. The GI50 in the assay on 786-0, in the assay with PC-3, in the assay with OVCAR-8, with TK-10, in the assay on HL-60 and in the assay with ACHN was > 100 µM (inactive) each time. Also, the GI50 with SNB-75 is > 100 µM (inactive).
For the compound `COc1ccc(NC(=O)C2C(=O)N(c3ccc(OC)cc3)C(=O)/C2=N/O)cc1` (stereo unspecified), the GI50 was 21.8 µM (inactive) with UACC-62; 23.5 µM (inactive) in the assay with HOP-62; > 71.9 µM (inactive) in the assay on RPMI-8226; > 100 µM (inactive) in the assay with CCRF-CEM; 21.9 µM (inactive) in the assay with NCI-H460; 21.6 µM (inactive) in the assay with HCT-116. For the same compound, the GI50 was 22.2 µM (inactive) with UO-31; 32.7 µM (inactive) in the assay on CAKI-1; 38.6 µM (inactive) in the assay with HT-29; 32.2 µM (inactive) with EKVX; 20.1 µM (inactive) in the assay on 786-0; 18 µM (inactive) in the assay on OVCAR-8. For the same compound, the GI50 in the assay with TK-10 was 23.9 µM (inactive); in the assay with HL-60, > 100 µM (inactive); with ACHN it was 21.8 µM (inactive); with SNB-75 it was 32.2 µM (inactive).
Turning to `O=C(N/C(=C/c1ccc(Cl)cc1Cl)c1nc2ccccc2s1)c1ccccc1`, the GI50 was 16.6 µM (inactive) in the assay with UACC-62; 10.8 µM (inactive) in the assay with HOP-62; 12.1 µM (inactive) in the assay on RPMI-8226; 10.3 µM (inactive) in the assay on MDA-MB-231; 15.6 µM (inactive) in the assay with MDA-MB-435; 4.72 µM (inactive) in the assay with CCRF-CEM. Moreover, the GI50 with NCI-H460 was 17.8 µM (inactive); in the assay on HCT-116, 6.78 µM (inactive); with UO-31, 13.6 µM (inactive); with CAKI-1, 15.8 µM (inactive); with HT-29, 19.3 µM (inactive); with EKVX, 18.5 µM (inactive). For the same compound, the GI50 in the assay with 786-0 was 12.9 µM (inactive); in the assay with PC-3 it was 18 µM (inactive); in the assay with OVCAR-8 it was 18.6 µM (inactive); with TK-10, 21 µM (inactive); in the assay with HL-60, 32.4 µM (inactive); in the assay with ACHN, 6.56 µM (inactive). Besides, the GI50 in the assay on SNB-75 was 17.9 µM (inactive).
Turning to `CC(=O)/C(=N\O)C(=O)NCc1ccccc1`, the GI50 was > 100 µM (inactive) in the assay on UACC-62; > 100 µM (inactive) in the assay with HOP-62; > 100 µM (inactive) in the assay on RPMI-8226; > 100 µM (inactive) with CCRF-CEM; 35.2 µM (inactive) in the assay on NCI-H460; > 100 µM (inactive) in the assay with HCT-116. In addition, the GI50 in the assay with UO-31, with CAKI-1, in the assay on HT-29, with EKVX, with 786-0 and with OVCAR-8 was > 100 µM (inactive) each time. Besides, the GI50 in the assay with TK-10, with HL-60, in the assay with ACHN and in the assay on SNB-75 was > 100 µM (inactive) throughout.
On to `NNC(=O)C(=O)N/N=C1/CCCC1C(=O)CCC(=O)Nc1ccc(Cl)cc1` (stereo unspecified), for which the GI50 is 2.49 µM (inactive) in the assay on UACC-62; > 100 µM (inactive) in the assay on HOP-62; > 100 µM (inactive) in the assay with RPMI-8226; > 100 µM (inactive) in the assay on CCRF-CEM; > 100 µM (inactive) in the assay on NCI-H460; > 100 µM (inactive) in the assay with HCT-116. Further, the GI50 in the assay with UO-31 is > 100 µM (inactive); in the assay on CAKI-1, 20.5 µM (inactive); in the assay on HT-29, > 100 µM (inactive); with EKVX, > 100 µM (inactive); in the assay on 786-0, > 100 µM (inactive); with OVCAR-8, > 100 µM (inactive). Also, the GI50 in the assay on TK-10 is > 100 µM (inactive); in the assay on HL-60 it was > 100 µM (inactive); with ACHN, 15.3 µM (inactive); in the assay on SNB-75, > 100 µM (inactive).
